Source: US8957042B2, “Cancer treatment targeting non-coding RNA overexpression” (The Texas A&M University System, priority 2012, dated 2015)

What was measured:
miR-27a, ZBTB10 = conditions: colon cancer cells; cited from earlier work
ZBTB10 = ZBTB10 expression in Panc1 cells; format: cell-based, human
MALAT-1 [1] = experiment: MALAT-1 expression (RNA abundance) in L3.6pL cells; format: cell-based; conditions: doses of 5.0 and 7.0 μM
Protocol: (§1) MALAT-1 RNA was detected using forward and reverse oligonucleotides with sequences set forth herein as SEQ ID NOS:7 and 8. Furthermore, MALAT-1 can be detected in serum obtained from pancreatic cancer patients (not shown) and this correlates with the reported high expression of MALAT-1 in pancreatic tumors compared to non-tumor tissues. Subsequent MALAT-1 knockdown studies with RNA interference were conducted using two oligonucleotides (siMALAT-1a and siMALAT-1b), the sequences of which are set forth herein as SEQ ID NOS:5 and 6, respectively. […] Thus, MALAT-1 and MALAT-1-regulated genes play a role in pancreatic cancer cell growth. […] Additional studies on the role of MALAT-1 in cell survival and kinase signaling were performed, because both pathways are affected, in part, by overexpression of growth factors and activating RAS mutations. These aspects are common in many pancreatic cancer cell lines and tumors.

MALAT-1 [2] = experiment: MALAT-1 expression (RNA abundance) in Panc1 cells; format: cell-based, human; conditions: doses of 5.0 and 7.0 μM
Protocol: as §1

ROS = ROS induction in pancreatic cancer cells; format: cell-based; conditions: pancreatic cancer cells (data not shown)
HOTAIR = HOTAIR expression (RNA levels, real time PCR) in Panc1 cells; format: cell-based, human; conditions: for HOTAIR expression after siRNA transfection: vs siCT
Protocol: (§2) RNA isolation and quantitative PCR: Total RNA was extracted either from pancreatic cancer cell lines or from tissue samples. Five control and siRNA HOTAIR-transfected tissue samples were analyzed, respectively, from xenograft study using mirVana RNA isolation kit from Ambion (Austin, Tex., USA), and quantitative PCR was carried out using iCycler IQTM real-time PCR detection system (Bio-Rad, Hercules, Calif., USA) after reverse transcription to cDNAs. The RT primer sets for HOTAIR, PCDHB5, PCDH10, JAM2, LAMB3, ABL2, SNA1 and LAMC2 were used as described previously (Gupta, R. A., et al., “Long Non-Coding RNA HOTAIR Reprograms Chromatin State to Promote Cancer Metastasis,” Nature 464:1071-1076, 2010). The forward and reverse oligonucleotide primer sequences specifically for HOTAIR amplification and detection are also set forth herein as SEQ ID NOS:1 and 2, respectively.

[3] = tested on: Sp1, Sp3, and Sp4 proteins; experiment: Sp1, Sp3 and Sp4 protein expression in Panc1 cells; format: cell-based, human
miR-27a = miR-27a expression in Panc1 cells; format: cell-based, human
L3.6pL cells [4] = experiment: Annexin V apoptosis assay, L3.6pL; format: cell-based; conditions: L3.6pL cells transfected with siRNA
Protocol: (§3) Boyden chamber cell invasion and apoptosis assays: Pancreatic cancer cells were transfected with either siRNAs (HOTAIR vs. control) or expression vectors (empty vs. HOTAIR) and cell invasion assay was performed as described previously. Cells were transfected with siCT or siHOTAIR and after 72 h, cells were stained for Annexin V using the Vibrant apoptosis assay kit as described.

GDF15 promoter = GDF15 promoter luciferase assay in Panc1 cells; format: cell-based, human
Protocol: siRNA transfection and luciferase assay: Pancreatic cancer cells were transfected with 100 nM of control siRNA or HOTAIR siRNA I (available from Sigma Aldrich, catalogue No. SASI_Hs02—00380445) or HOTAIR siRNA II (available from Sigma Aldrich, catalogue No. SASI_Hs02—00380446) using Lipofectamine 2000 (Invitrogen, Grand Island, N.Y., USA). Panc1 cells were cotransfected with control siRNA or HOTAIR siRNA I and HOTAIR II, and various length of GDF15 luciferase constructs. Luciferase activities were measured after 24 h as described previously. MISSION siRNAs for EZH2 and Suz12 were also purchased from Sigma Aldrich.

cyclin D1 and cyclin E [5] = experiment: Cyclin D1 and cyclin E mRNA in L3.6pL cells; format: cell-based; conditions: L3.6pL cells (FIG. 2D)
Protocol: as §2

L3.6pL cells [6] = experiment: Xenograft of siRNA-transfected L3.6pL cells in nude mice; format: in vivo
Protocol: Xenograft study: L3.6pL cells (6×10^4 ml) were transfected with 100 nM siHOTAIR or siCT using Lipofectamine. After 48 h cells were collected and 1×10^6 cells injected into either side of the flank area of female nude mice (Harlan), and tumor volumes and weights were determined in mice from the siHOTAIR (six mice) or siCT (six mice) groups as described, and siHOTAIR levels were determined by realtime PCR. Tumor volumes were measured (0.5×length×width^2) and after 16 days, the mice were killed and tumor weights were measured and also used for further analysis as described.
Immunohistochemistry and TUNEL assay: Tissue sections were deparaffinized in xylene and treated with graded series of alcohol and rehydrated in PBS. Antigen retrieval was done using 10 mM sodium citrate (pH 6.0-6.2) and endogenous peroxidase was blocked by 3% hydrogen peroxide in methanol for 6 min. Slides were then incubated with blocking serum (Vecstatin ABC Elite kit, Vector Laboratories, Burlingame, Calif., USA) for 45 min. Samples were then incubated overnight with Ki-67 and PCNA antibodies at 4° C. Sections were then washed in PBST and then incubated with biotinylated secondary antibody followed by streptavidin. The brown staining specific for antibody binding was developed by exposing the avidin and biotinylated peroxidase complex to diaminobenzidine reagent (Vector Laboratories) and sections were then counterstained with hematoxylin (Vector Laboratories). The in situ cell death detection POD kit was used for the TUNEL assay according to the instructions in the protocol for tissue sections.

Panc1 cells [7] = experiment: Annexin V apoptosis assay, Panc1; format: cell-based, human; conditions: Panc1 cells transfected with siRNA
Protocol: as §3

cyclin D1 and cyclin E [8] = experiment: Cyclin D1 and cyclin E mRNA in Panc1 cells; format: cell-based, human; conditions: Panc1 cells (FIG. 2C)
Protocol: as §2

[9] = tested on: cPARP, EZH2, Cyclin D1, survivin, VEGF; experiment: Expression of cPARP, EZH2, Cyclin D1, survivin, VEGF in Panc1 cells; format: cell-based, human; conditions: Panc1 cells transfected with siRNA
Panc1 cells [10] = experiment: Cell proliferation (cell counting) of Panc1 cells after siRNA transfection; format: cell-based, human; conditions: vs control oligonucleotide
Protocol: (§4) Cell proliferation and fluorescence-activated cell sorting analysis and apoptosis: Cells were seeded in 12-well plates and transfected with either appropriate siRNA or expression vectors, and cell numbers were counted at the indicated times using a Coulter Z1 cell counter (Beckman Coulter, Fullerton, Calif., USA). For fluorescence-activated cell sorting analysis, after pancreatic cancer cells were transfected with siRNAs for either control or HOTAIR, cells were stained with propidium iodide solution and were analyzed on a FACS Calibur Flow Cytometer (Becton Dickinsin Systems, Franklin Lakes, N.J., USA).

Panc28 and Panc1 cells = experiment: Transwell migration of pancreatic cancer cells (Boyden chamber); format: cell-based, human; conditions: pancreatic cancer cells (not shown)
Protocol: as §3

L3.6pL cells [11] = experiment: Cell proliferation (cell counting) of L3.6pL cells after siRNA transfection; format: cell-based; conditions: vs control oligonucleotide
Protocol: as §4

Panc28 cells = experiment: Cell proliferation of Panc28 cells after siRNA transfection; format: cell-based, human; conditions: 48 and 72 hours, vs siLamin
miR-21 and miR-181b [12] = experiment: Oncogenic miR levels in L3.6pL cells (real time PCR); format: cell-based; conditions: 100 nM siRNA
Protocol: (§5) Panc28 and L3.6pL pancreatic cancer cell lines were seeded (6×10^4 per well) in 6-well plates in DMEM:Ham's F-12 medium supplemented with 2.5% charcoal-stripped FBS without antibiotic and left to attach for 1 d. Single and triple Sp siRNA knockdown (iSp1, iSp3, iSp4) along with iLamin as control was performed using LipofectAMINE™2000 transfection reagent as per the manufacturer's protocol to attain 100 nM concentration of siRNA in the media. Cells were left with the transfection mixture for 24-48 hrs before changing to fresh 2.5% DMEM-F12 media. Cells were harvested after 60-72 hrs for protein, mRNA or miRNA. miRNA was extracted using mirVana™ miRNA extraction kit (Applied Biosystems) according to manufacturer's protocol and was used to assess expression of various non-coding RNAs using different primers and determined by real-time PCR.

miR-21 and miR-181b [13] = experiment: Oncogenic miR levels in Panc28 cells (real time PCR); format: cell-based, human; conditions: 100 nM siRNA
Protocol: as §5

Sp1, Sp3, and Sp4 mRNA = experiment: Sp1, Sp3, Sp4 mRNA knockdown in Panc1 cells; format: cell-based, human; conditions: vs siCT
Source text: (§6) Using short interfering RNAs corresponding to SpTF genes for RNAi assays, expression of the SpTF were successfully knocked down. Sp1 was knocked down using an oligonucleotide with a sequence set forth herein as SEQ ID NO:19. Sp3 was knocked down using an oligonucleotide with a sequence set forth herein as SEQ ID NO:20. Sp4 was knocked down using an oligonucleotide with a sequence set forth herein as SEQ ID NO:21. […] FIG. 6B. In this assay, HOTAIRM was amplified and detected using forward and reverse oligonucleotide sequences set forth herein as SEQ ID NOS:3 and 4, respectively. Additionally, HOTTIP was amplified and detected using forward and reverse oligonucleotide sequences set forth herein as SEQ ID NOS:10 and 11, respectively.

HOTTIP = HOTTIP expression in Panc1 cells; format: cell-based, human
Source text: as §6

HOTAIRM1 = HOTAIRM1 expression in Panc1 cells; format: cell-based, human
Source text: as §6

For `COC(=O)[C@@]1(C)CCC2(C)CC[C@]3(C)C(=CC(=O)[C@@H]4C5(C)C=C(C#N)C(=O)C(C)(C)[C@@H]5CCC43C)C2C1` (stereo partly drawn) [CDODA-Me, methyl 2-cyano-3,11-dioxo-18β-olean-1,12-dien-30-oate], the ZBTB10 (miR-27a, ZBTB10) is listed as “increased”, the “microRNA (miR)-27a” value (miR-27a, ZBTB10) is listed as “decreased” and the ZBTB10 expression (ZBTB10) is listed as “induction”. The MALAT-1 expression (MALAT-1 [1]) was “significantly downregulate”, the MALAT-1 expression (MALAT-1 [2]) was “significantly downregulate” and the ROS (ROS) was “induce ROS”. For the same compound, the HOTAIR expression (HOTAIR; drug treatment, 24 hrs (FIG. 7B)) was “decreased”, the “Sp1, Sp3, and Sp4 proteins” value ([3]; 24 hrs (FIG. 7A)) was “downregulate” and the “Sp proteins after 48 hrs” value ([3]; 48 hrs) was “almost non-detectable”. The “induction of ZBTB10, downregulation of miR-27a and repression of Sp1, Sp3, Sp4 after cotreatment with antioxidants” value ([3]; cotreatment with DTT or GSH) was “inhibited” and the miR-27a (miR-27a) was “downregulation”.

For “siHOTAIR II: HOTAIR siRNA II, Sigma Aldrich catalogue No. SASI_Hs02—00380446 (UGAACACGACUUGGUGUGGTT; chemistry not given here)”, the “Annexin V staining (apoptosis)” value (L3.6pL cells [4]) was “enhanced”, the “luciferase activity, GDF15 promoter constructs -3500 to +41, -1086 to +41 and -474 to +41” value (GDF15 promoter) was “decreased” and the “expression of cyclin D1 and cyclin E” value (cyclin D1 and cyclin E [5]) was “decreased expression”. The pancreatic tumor weight (L3.6pL cells [6]; after 16 days, vs siCT) was “dramatic decrease”, the “HOTAIR expression in tumors” value (L3.6pL cells [6]; end of study, vs siCT) was “dramatic decrease” and the pancreatic tumor volume (L3.6pL cells [6]; up to 16 days, vs siCT) was “dramatic decrease”. The “Annexin V staining (apoptosis)” value (Panc1 cells [7]) was “enhanced” and the “expression of cyclin D1 and cyclin E” value (cyclin D1 and cyclin E [8]) was “decreased expression”.

With “siHOTTIP: siRNA for HOTTIP, SEQ ID NO:9 (GCACAGAGAUAAUGGCAAAUU; listed as RNA, chemistry not given here)” the “PARP cleavage / cPARP” value [9] was “induced expression”, the “expression of EZH2, Cyclin D1, survivin and VEGF” value [9] was “decreased expression” and the “Annexin V staining (apoptosis)” value (L3.6pL cells [4]) was “increased staining”. The “cell proliferation / cell growth” value (Panc1 cells [10]) was “reductions in cell growth”, the transwell migration (Panc28 and Panc1 cells) was “significantly decreased” and the “cell proliferation / cell growth” value (L3.6pL cells [11]) was “reductions in cell growth”. The “reduction in tumor weight” value (L3.6pL cells [6]; at sacrifice, vs control) was ~75%, the tumor volume (L3.6pL cells [6]; over ten days, vs control cells) was “significant reduction” and the “Annexin V staining (apoptosis)” value (Panc1 cells [7]) was “increased staining”.

With “siMALAT-1a: siRNA for MALAT-1 knockdown, SEQ ID NO:5 (GGCAAUAGAGGCCCUUAA; listed as RNA, chemistry not given here)” the “cell proliferation / cell growth” value (Panc1 cells [10]) was “significant inhibition” and the cell proliferation (Panc28 cells) was “significant inhibition”.

For “siMALAT-1b: siRNA for MALAT-1 knockdown, SEQ ID NO:6 (GAAUUCCGGUGAUGCGAGU; listed as RNA, chemistry not given here)”, the “cell proliferation / cell growth” value (Panc1 cells [10]) was “significant inhibition” and the cell proliferation (Panc28 cells) was “significant inhibition”.

For “siSp3: siRNA for Sp3, sequence SEQ ID NO:20 (GCGGCAGGUGGAGCCUUCACUTT; chemistry not given here)”, the miR-21 expression (miR-21 and miR-181b [12]) was “decrease”, the miR-181b expression (miR-21 and miR-181b [12]) was “decrease” and the miR-21 expression (miR-21 and miR-181b [13]) was “decrease”. The miR-181b expression (miR-21 and miR-181b [13]) was “decrease”, the “mRNA level of the respective Sp (Sp1, Sp3, Sp4)” value (Sp1, Sp3, and Sp4 mRNA) was “decreased” and the HOTTIP expression (HOTTIP) was “significant decrease”. For the same compound, the “HOTAIR expression after siRNA transfection” value (HOTAIR) was “significant decrease” and the HOTAIRM1 expression (HOTAIRM1) was “significant decrease”.

With “siSp4: siRNA for Sp4, sequence SEQ ID NO:21 (GCAGUGACACAUUAGUGAGCTT; chemistry not given here)” the miR-21 expression (miR-21 and miR-181b [12]) was “decrease”, the miR-181b expression (miR-21 and miR-181b [12]) was “decrease” and the miR-21 expression (miR-21 and miR-181b [13]) was “decrease”. The miR-181b expression (miR-21 and miR-181b [13]) was “decrease”, the “mRNA level of the respective Sp (Sp1, Sp3, Sp4)” value (Sp1, Sp3, and Sp4 mRNA) was “decreased” and the HOTTIP expression (HOTTIP) was “significant decrease”. The “HOTAIR expression after siRNA transfection” value (HOTAIR) was “significant decrease” and the HOTAIRM1 expression (HOTAIRM1) was “significant decrease”.
